Measured values from patent US9457037B2, “Combination composition, comprising as active ingredients L-carnitine or propionyl L-carnitine, for the prevention or treatment of chronic venous insufficiency” (SIGMA-TAU INDUSTRIE FARMACEUTICHE RIUNITE S.P.A., priority 2010, dated 2016).

Experiments:
[1] = test system: isolated aorta from spontaneously hypertensive rats; test: Relaxant effect on aortic rings precontracted by phenylephrine; design: species or system rat; details: 100 micro-molar each component, final concentration in organ chamber; rings precontracted by phenylephrine (1 micromolar); n=8
Description: The objective of this study was to investigate the vasoarelaxation effects of the compositions of the invention using isolated aorta from spontaneously hypertensive rats. The compounds tested were used at a concentration expressed as final concentration in the organ chamber. Male spontaneously hypertensive rats (SHR) 10-12 weeks old, weighing 250-300 g, were housed at 24±2° C. with 60±20% relative humidity, on a 12-h light-dark cycle. Rats were given free access to a diet of standard food and water. All experiments were performed according to the guidelines for the ethical treatment of animals of the European Union. The rats were killed by cervical dislocation and the aortae were rapidly dissected. […] Aortic rings were mounted under a basal tension of 2 g in 20 mL organ baths containing PSS and attached to an isometric transducer (Harvard UF-1); the signal was recorded by a Powerlab data acquisition system (AD-Instruments). […] The relaxant effect of compounds tested was assessed by adding the compound to aortic rings precontracted by phenylephrine (1 micromolar). […] All the results were expressed as a percentage of the maximal contraction of phenylephrine-induced responses. Results are expressed as percentages from the initial precontraction level. The significance was calculated on the actual contraction values means±SE (n=8 aorta preparations per group). […]

[2] = test system: recto-anus swelling induced by croton oil; test: Croton oil-induced hemorrhoid model in rats (swelling of the recto-anus, RAC); type: in vivo, rat; details: with croton oil (3%) induction, 24 h after induction; oral once per day for five days; 20 mg/kg carnitines, 30 mg/kg flavonoids; male SD rats, n = 5
Description: Male SD rats (6 weeks old, approximately 140 g) were purchased from Harlan Sprague Dawley and allowed to acclimate for 1 week. The rats were maintained in a pathogen-free facility in accordance with the National Research Council of Laboratory Animal care and use guidelines. Each experiment was preformed with age-matched rats 7-8 weeks old. The croton oil-induced hemorrhoid model in rats was performed according to the method published by Nishiki (Nishiki et al. (1988) Folia Pharmacology Japan 92:215-225; Nishiki et al. (1988) Folia Pharmacol. Japan 92:227-240). Briefly, a cotton swab with a diameter of 4 mm soaked with 0.16 mL of inducer (deionized water:pyridine:ethyl ether:6% croton oil/ethyl ether (1:4:5:10) was applied to the rat's anus for 12 seconds. The final concentration of croton oil was 3%. The edema developed linearly until 7-8 hours after application and the severity of the edema was sustained for more than 24 hours. Twenty-four hours later, recto-anus tissue (approx. 10 mm long) was isolated after the rats were euthanized. The weights of rat body and recto-anus were measured. The recto-anus coefficient (RAC) was calculated using the formula: weight of recto-anus (mg)/body weight (g). […]
Twenty-four hours after hemorrhoid induction with croton oil the RAC of rats was determined.

Row | Compound | % RELAXATION [1] | RAC (recto-anus coefficient: weight of recto-anus (mg)/body weight (g)) [2]
1 | COc1ccc([C@@H]2CC(=O)c3c(O)cc(O[C@@H]4O[C@H](CO[C@@H]5O[C@@H](C)[C@H](O)[C@@H](O)[C@H]5O)[C@@H](O)[C@H](O)[C@H]4O)cc3O2)cc1O [Hesperidine, hesperidine] | 9% | 2.07
2 | CCC(=O)O[C@H](CC(=O)[O-])C[N+](C)(C)C [Propionyl L-carnitine, propionyl L-carnitine] | 28% | 1.96
